Common to all, as to assay: Two-electrode voltage clamp, ACh-dependent (m2R-dependent) K+ current activation
Common to all, as to assay type: cell-based
For orientation: Two-electrode voltage clamp is typically applied to oocytes expressing channels or transporters.

For one assay, the target named is T1, Kir3.2 E236A (Mus musculus, UniProt P48542, E236A).
T1 sequence (P48542 19-425 E236A): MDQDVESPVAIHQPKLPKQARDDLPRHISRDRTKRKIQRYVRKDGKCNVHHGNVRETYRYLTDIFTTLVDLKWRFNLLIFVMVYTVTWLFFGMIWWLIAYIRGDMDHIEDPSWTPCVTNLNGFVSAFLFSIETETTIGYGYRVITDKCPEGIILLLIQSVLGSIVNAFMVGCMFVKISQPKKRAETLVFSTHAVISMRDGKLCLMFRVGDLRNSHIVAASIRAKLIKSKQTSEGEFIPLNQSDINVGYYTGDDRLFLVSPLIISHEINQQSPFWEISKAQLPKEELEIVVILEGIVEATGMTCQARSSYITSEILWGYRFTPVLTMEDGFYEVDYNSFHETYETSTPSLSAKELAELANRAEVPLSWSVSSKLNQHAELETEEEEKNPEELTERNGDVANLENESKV
T1 sequence (P06199 1-466 partner): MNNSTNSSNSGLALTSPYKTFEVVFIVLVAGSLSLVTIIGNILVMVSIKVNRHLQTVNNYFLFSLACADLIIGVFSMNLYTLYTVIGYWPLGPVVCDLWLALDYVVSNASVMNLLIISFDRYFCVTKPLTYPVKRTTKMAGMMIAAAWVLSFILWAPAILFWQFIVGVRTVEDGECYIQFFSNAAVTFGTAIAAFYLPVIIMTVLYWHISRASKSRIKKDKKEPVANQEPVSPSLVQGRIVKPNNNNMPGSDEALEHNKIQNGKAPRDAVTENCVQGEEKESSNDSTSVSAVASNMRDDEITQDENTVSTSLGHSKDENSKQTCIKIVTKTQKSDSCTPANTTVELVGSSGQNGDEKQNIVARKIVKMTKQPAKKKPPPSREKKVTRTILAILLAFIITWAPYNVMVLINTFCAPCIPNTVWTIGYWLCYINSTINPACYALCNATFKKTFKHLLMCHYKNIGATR
The note with it: Kir3.2 E236A with porcine m2R in Xenopus oocytes; −120 mV; Hill equation fit. An excerpt:
(§1) The mouse Kir3.2d isoform was subjected to functional analyses. The amino acid numbers correspond to the longest mouse Kir3.2 isoform. Point mutations were introduced using the QuikChange site-directed mutagenesis kit (Stratagene, La Jolla, CA), and the presence of the mutations was confirmed by direct DNA sequencing. The care of Xenopus laevis was in accordance with the guideline of the Institute of Experimental Animal Sciences, Osaka University. The protocol was approved by the Animal Experiment Committee of Osaka University. The frogs were deeply anesthetized by immersing in 0.2% tricaine methanesulfonate for 20 min at 18°C. A portion of an ovary lobe was surgically removed and incubated with collagenase to remove follicular cells. The oocytes were injected with the cRNAs of Kir3.2 and porcine m2-muscarinic receptor (m2R), and maintained in modified Barth’s solution at 18°C with daily solution changes. Electrophysiological studies were undertaken 48–72 h later at room temperature (20–25°C). Two-electrode voltage-clamp recordings from oocytes were performed using a GeneClamp 500B amplifier (Axon Instruments, Sunnyvale, CA). […] The bath solution contained 40 mM KCl, 50 mM NaCl, 3 mM MgCl2, 0.15 mM niflumic acid, and 5 mM HEPES-KOH (pH 7.4). The currents were recorded in the absence or presence of various concentrations of acetylcholine (ACh). Ba^2+ (3 mM) was added at the end of the recording to estimate the endogenous leak current. The data are expressed as mean values ± standard error of the mean. For the quantitative estimation of ACh-dependent current responses of the wild-type (WT) and mutant channels, the current amplitudes at the end of test pulses at each ACh concentration ([ACh]) were fitted using the following equation:
(§2) I=min+[(max−min)/(1+(EC50/[ACh])^nH)]
(§3) where I is the current amplitude measured at the [ACh], n H is the Hill coefficient, and EC50 is the concentration that induces 50% of the maximal response. […] The values of n H and EC50 were calculated using a non-linear least-squares best fit (SigmaPlot 9; Systat Software). Statistical analyses were performed by one-way ANOVA with post-hoc tests.

The next assay addresses T2, Kir3.2 E236G (Mus musculus, UniProt P48542, E236G).
T2 sequence (P48542 19-425 E236G): T1 sequence (P48542 19-425 E236A) with A218G
T2 sequence (P06199 1-466 partner): T1 sequence (P06199 1-466 partner)
The note with it: Kir3.2 E236G with porcine m2R in Xenopus oocytes; −120 mV; Hill equation fit.
From the text: as §1, §2, §3

In another assay the target is T3, Kir3.2 E236S (Mus musculus, UniProt P48542, E236S).
T3 sequence (P48542 19-425 E236S): T1 sequence (P48542 19-425 E236A) with A218S
T3 sequence (P06199 1-466 partner): T1 sequence (P06199 1-466 partner)
The note with it: Kir3.2 E236S with porcine m2R in Xenopus oocytes; −120 mV; Hill equation fit.
From the text: as §1, §2, §3

The values that follow come from PMC3823594, “Conformational Changes Underlying Pore Dilation in the Cytoplasmic Domain of Mammalian Inward Rectifier K^+ Channels” (PLoS ONE, 2013).

Molecules are shown by their SMILES. Residue numbers refer to the chain shown, from its start.

A word on the Hill coefficient: it is the slope factor of the fitted curve. For `CC(=O)OCC[N+](C)(C)C` [ACh, acetylcholine], the Hill coefficient on Kir3.2 E236A amounted to 1.12 ± 0.04; on Kir3.2 E236G, 1.10 ± 0.04; at Kir3.2 E236S it was 0.86 ± 0.07.
